# Measurements taken from patent publication US8440612B2, “Controlling giardiosis” (Bayer Intellectual Property GmbH, priority 2008, dated 2013).
# “And” between values parts separate entries of the source, which are not always exact repeats. Equal values may be shown once.
# Legend:
# Giardia duodenalis [1] = assay: Giardia cyst excretion in infected Beagle puppies, single oral dose (Biological Example 1); type: in vivo
# Excerpt: Beagle puppies aged 10-11 weeks which had 11 days to settle in the animal centre before being infected were infected orally with 50 000 Giardia duodenalis cysts. The cysts for the infection were obtained with the aid of a sucrose gradient from the faeces of dogs which excreted Giardia cysts and stored at 4 degrees centigrade in Bacto-Casitone medium for no longer than 2 weeks. From day 10 after the infection, the puppies were kept in individual cages in order to collect the daily total faeces for each individual. The quantitative determination of the cyst excretion was performed in the 4 days prior to treatment (day −3 to 0), and the puppies were divided randomly into two groups, taking into consideration the cyst excretion. […] The quantitative determination of the cyst excretion was continued from day 1 to day 8 after the treatment.
# Results: The activity was calculated using the following formula:
# (§1) Method: The quantitative determination of the cyst excretion was performed using a modified version of Hewlett (18): 4 g faeces were dissolved in 100 ml of water, sieved and allowed to sediment. The sediment was applied to a 1 M sucrose gradient (specific gravity 1.13), and the cysts, which were concentrated at the sucrose/water boundary layer after the centrifugation were pipetted off. After a wash step followed by centrifugation, the cysts in the pellet were counted. To this end, an aliquot of the pellet was counted under the microscope, and the number of cysts per g faeces was calculated.
# Giardia duodenalis [2] = assay: Giardia cyst excretion in infected Beagle puppies, oral dose on three successive days (Biological Example 2); type: in vivo
# Method: as §1
# Beagle puppies aged 11-15 weeks which had at least 2 weeks to settle in the animal centre before being infected were infected orally with 50 000 Giardia duodenalis cysts before the beginning of the study. The cysts for the infection were obtained with the aid of a sucrose gradient from the faeces of dogs which excreted Giardia cysts and stored at 4 degrees centigrade in Bacto-Casitone medium for no longer than 2 weeks. 18 puppies which excreted Giardia cysts were included in the study and kept in individual cages in order to collect the daily total faeces. The quantitative determination of the cyst excretion was performed as an […], with the modification that the aliquot of the pellet was counted under the microscope with the aid of a Fuchs-Rosenthal hematocytometer. The quantitative determination of the cyst excretion was performed for 4 days before the treatment (day −3 to 0), and the puppies were divided randomly into three groups, taking into consideration the cyst excretion. […] The 6 dogs of the control group remained untreated. The quantitative determination of the cyst excretion was continued from day 1 to day 8 after the treatment.
smiles,measurement,setting,value
CC1CS(=O)(=O)CCN1N=Cc1ccc([N+](=O)[O-])o1 (stereo not shown) [nifurtimox],Activity,"Giardia duodenalis [1]; calculated activity on cyst excretion versus infected untreated control, day 1 to 8, single oral dose 50 mg/kg, 50 mg/kg",90.4%
same,Σ Giardia cyst excretion D1,"Giardia duodenalis [1]; group line Σ (7 dogs), day 1 after treatment, 50 mg/kg oral on day D0",1516 cysts per g faeces
same,Σ Giardia cyst excretion D2,"Giardia duodenalis [1]; group line Σ (7 dogs), day 2 after treatment, 50 mg/kg oral on day D0",26 cysts per g faeces
same,Σ Giardia cyst excretion D3,"Giardia duodenalis [1]; group line Σ (7 dogs), day 3 after treatment, 50 mg/kg oral on day D0",32 cysts per g faeces
same,Σ Giardia cyst excretion D4,"Giardia duodenalis [1]; group line Σ (7 dogs), day 4 after treatment, 50 mg/kg oral on day D0",473 cysts per g faeces
same,Σ Giardia cyst excretion D5,"Giardia duodenalis [1]; group line Σ (7 dogs), day 5 after treatment, 50 mg/kg oral on day D0",629 cysts per g faeces
same,Σ Giardia cyst excretion D6,"Giardia duodenalis [1]; group line Σ (7 dogs), day 6 after treatment, 50 mg/kg oral on day D0",2523 cysts per g faeces
same,Σ Giardia cyst excretion D7,"Giardia duodenalis [1]; group line Σ (7 dogs), day 7 after treatment, 50 mg/kg oral on day D0",2403 cysts per g faeces
same,Σ Giardia cyst excretion D8,"Giardia duodenalis [1]; group line Σ (7 dogs), day 8 after treatment, 50 mg/kg oral on day D0",3127 cysts per g faeces
same,Σ Giardia cyst excretion D0,"Giardia duodenalis [1]; group line Σ (7 dogs), day of treatment, 50 mg/kg oral on day D0",8996 cysts per g faeces
same,Σ Giardia cyst excretion D−1,"Giardia duodenalis [1]; group line Σ (7 dogs), day −1, before treatment, 50 mg/kg oral on day D0",39966 cysts per g faeces
same,Σ Giardia cyst excretion D−2,"Giardia duodenalis [1]; group line Σ (7 dogs), day −2, before treatment, 50 mg/kg oral on day D0",38482 cysts per g faeces
same,Σ Giardia cyst excretion D−3,"Giardia duodenalis [1]; group line Σ (7 dogs), day −3, before treatment, 50 mg/kg oral on day D0",9762 cysts per g faeces
same,Σ Giardia cyst excretion Day 1 to 8,"Giardia duodenalis [1]; group, after treatment, 50 mg/kg oral once on day 0",1341 cysts per g faeces
same,Σ Giardia cyst excretion Day −3 to 0,"Giardia duodenalis [1]; group, before treatment, 50 mg/kg oral once on day 0",24302 cysts per g faeces
same,Giardia cyst excretion D1,"Giardia duodenalis [1]; individual dogs, day 1 after treatment, 50 mg/kg oral on day D0, 50 mg/kg",504 cysts per g faeces and 4928 cysts per g faeces and 152 cysts per g faeces and 0 cysts per g faeces (2×) and 2636 cysts per g faeces and 2391 cysts per g faeces
same,Giardia cyst excretion D2,"Giardia duodenalis [1]; individual dogs, day 2 after treatment, 50 mg/kg oral on day D0, 50 mg/kg",0 cysts per g faeces (6×) and 180 cysts per g faeces
same,Giardia cyst excretion D3,"Giardia duodenalis [1]; individual dogs, day 3 after treatment, 50 mg/kg oral on day D0, 50 mg/kg",0 cysts per g faeces (6×) and 224 cysts per g faeces
same,Giardia cyst excretion D4,"Giardia duodenalis [1]; individual dogs, day 4 after treatment, 50 mg/kg oral on day D0, 50 mg/kg",590 cysts per g faeces and 0 cysts per g faeces (2×) and 652 cysts per g faeces and 424 cysts per g faeces and 1451 cysts per g faeces and 193 cysts per g faeces
same,Giardia cyst excretion D5,"Giardia duodenalis [1]; individual dogs, day 5 after treatment, 50 mg/kg oral on day D0, 50 mg/kg",1700 cysts per g faeces and 1094 cysts per g faeces and 0 cysts per g faeces (2×) and 137 cysts per g faeces and 1318 cysts per g faeces and 153 cysts per g faeces
same,Giardia cyst excretion D6,"Giardia duodenalis [1]; individual dogs, day 6 after treatment, 50 mg/kg oral on day D0, 50 mg/kg",3693 cysts per g faeces and 2000 cysts per g faeces and 1201 cysts per g faeces and 353 cysts per g faeces and 0 cysts per g faeces and 4102 cysts per g faeces and 6315 cysts per g faeces
same,Giardia cyst excretion D7,"Giardia duodenalis [1]; individual dogs, day 7 after treatment, 50 mg/kg oral on day D0, 50 mg/kg",8881 cysts per g faeces and 431 cysts per g faeces and 1873 cysts per g faeces and 608 cysts per g faeces and 191 cysts per g faeces and 4615 cysts per g faeces and 223 cysts per g faeces
same,Giardia cyst excretion D8,"Giardia duodenalis [1]; individual dogs, day 8 after treatment, 50 mg/kg oral on day D0, 50 mg/kg",3294 cysts per g faeces and 517 cysts per g faeces and 14181 cysts per g faeces and 0 cysts per g faeces and 1621 cysts per g faeces and 1768 cysts per g faeces and 508 cysts per g faeces
same,Giardia cyst excretion D0,"Giardia duodenalis [1]; individual dogs, day of treatment, 50 mg/kg oral on day D0, 50 mg/kg",4397 cysts per g faeces and 8456 cysts per g faeces and 0 cysts per g faeces and 375 cysts per g faeces and 19681 cysts per g faeces and 16419 cysts per g faeces and 13644 cysts per g faeces
same,Giardia cyst excretion D−1,"Giardia duodenalis [1]; individual dogs, day −1, before treatment, 50 mg/kg oral on day D0, 50 mg/kg",1306 cysts per g faeces and 14238 cysts per g faeces and 2264 cysts per g faeces and 788 cysts per g faeces and 189275 cysts per g faeces and 45725 cysts per g faeces and 26163 cysts per g faeces
same,Giardia cyst excretion D−2,"Giardia duodenalis [1]; individual dogs, day −2, before treatment, 50 mg/kg oral on day D0, 50 mg/kg",907 cysts per g faeces and 923 cysts per g faeces and 5897 cysts per g faeces and 905 cysts per g faeces and 186750 cysts per g faeces and 45672 cysts per g faeces and 28322 cysts per g faeces
same,Activity,"Giardia duodenalis [2]; calculated activity on cyst excretion versus infected untreated control, day 3 to 8, 50 mg/kg oral on days 0, 1 and 2, 50 mg/kg",98.6%
same,Σ Giardia cyst excretion D0,"Giardia duodenalis [2]; group line Σ (6 dogs), D0, day of treatment, 50 mg/kg oral on days D0, D1 and D2",61098 cysts per g faeces
same,Σ Giardia cyst excretion D1,"Giardia duodenalis [2]; group line Σ (6 dogs), D1, day of treatment, 50 mg/kg oral on days D0, D1 and D2",872 cysts per g faeces
same,Σ Giardia cyst excretion D2,"Giardia duodenalis [2]; group line Σ (6 dogs), D2, day of treatment, 50 mg/kg oral on days D0, D1 and D2",211 cysts per g faeces
same,Σ Giardia cyst excretion D3,"Giardia duodenalis [2]; group line Σ (6 dogs), D3, after the treatment, 50 mg/kg oral on days D0, D1 and D2",0 cysts per g faeces
same,Σ Giardia cyst excretion D4,"Giardia duodenalis [2]; group line Σ (6 dogs), D4, after the treatment, 50 mg/kg oral on days D0, D1 and D2",135 cysts per g faeces
same,Σ Giardia cyst excretion D5,"Giardia duodenalis [2]; group line Σ (6 dogs), D5, after the treatment, 50 mg/kg oral on days D0, D1 and D2",638 cysts per g faeces
same,Σ Giardia cyst excretion D6,"Giardia duodenalis [2]; group line Σ (6 dogs), D6, after the treatment, 50 mg/kg oral on days D0, D1 and D2",339 cysts per g faeces
same,Σ Giardia cyst excretion D7,"Giardia duodenalis [2]; group line Σ (6 dogs), D7, after the treatment, 50 mg/kg oral on days D0, D1 and D2",54 cysts per g faeces
same,Σ Giardia cyst excretion D8,"Giardia duodenalis [2]; group line Σ (6 dogs), D8, after the treatment, 50 mg/kg oral on days D0, D1 and D2",399 cysts per g faeces
same,Σ Giardia cyst excretion D−1,"Giardia duodenalis [2]; group line Σ (6 dogs), day −1, before treatment, 50 mg/kg oral on days D0, D1 and D2",37547 cysts per g faeces
same,Σ Giardia cyst excretion D−2,"Giardia duodenalis [2]; group line Σ (6 dogs), day −2, before treatment, 50 mg/kg oral on days D0, D1 and D2",28220 cysts per g faeces
same,Σ Giardia cyst excretion D−3,"Giardia duodenalis [2]; group line Σ (6 dogs), day −3, before treatment, 50 mg/kg oral on days D0, D1 and D2",49751 cysts per g faeces
same,Σ Giardia cyst excretion Day 3 to 8,"Giardia duodenalis [2]; group, after treatment, 50 mg/kg oral on days 0, 1 and 2",261 cysts per g faeces
same,Σ Giardia cyst excretion Day: −3 to 0,"Giardia duodenalis [2]; group, before treatment, 50 mg/kg oral on days 0, 1 and 2",44154 cysts per g faeces
same,Giardia cyst excretion D0,"Giardia duodenalis [2]; individual dogs, D0, day of treatment, 50 mg/kg oral on days D0, D1 and D2, 50 mg/kg",60420 cysts per g faeces and 675 cysts per g faeces and 89880 cysts per g faeces and 86 cysts per g faeces and 103442 cysts per g faeces and 112084 cysts per g faeces
same,Giardia cyst excretion D1,"Giardia duodenalis [2]; individual dogs, D1, day of treatment, 50 mg/kg oral on days D0, D1 and D2, 50 mg/kg",809 cysts per g faeces and 187 cysts per g faeces and 974 cysts per g faeces and 0 cysts per g faeces and 1261 cysts per g faeces and 2000 cysts per g faeces
same,Giardia cyst excretion D2,"Giardia duodenalis [2]; individual dogs, D2, day of treatment, 50 mg/kg oral on days D0, D1 and D2, 50 mg/kg",741 cysts per g faeces and 0 cysts per g faeces (4×) and 527 cysts per g faeces
same,Giardia cyst excretion D3,"Giardia duodenalis [2]; individual dogs, D3, after the treatment, 50 mg/kg oral on days D0, D1 and D2",0 cysts per g faeces
same,Giardia cyst excretion D4,"Giardia duodenalis [2]; individual dogs, D4, after the treatment, 50 mg/kg oral on days D0, D1 and D2, 50 mg/kg",0 cysts per g faeces (4×) and 185 cysts per g faeces and 622 cysts per g faeces
same,Giardia cyst excretion D5,"Giardia duodenalis [2]; individual dogs, D5, after the treatment, 50 mg/kg oral on days D0, D1 and D2, 50 mg/kg",229 cysts per g faeces and 0 cysts per g faeces (3×) and 2299 cysts per g faeces and 1299 cysts per g faeces
same,Giardia cyst excretion D6,"Giardia duodenalis [2]; individual dogs, D6, after the treatment, 50 mg/kg oral on days D0, D1 and D2, 50 mg/kg",0 cysts per g faeces (3×) and 98 cysts per g faeces and 1842 cysts per g faeces and 93 cysts per g faeces
same,Giardia cyst excretion D7,"Giardia duodenalis [2]; individual dogs, D7, after the treatment, 50 mg/kg oral on days D0, D1 and D2, 50 mg/kg",0 cysts per g faeces (4×) and 87 cysts per g faeces and 237 cysts per g faeces
same,Giardia cyst excretion D8,"Giardia duodenalis [2]; individual dogs, D8, after the treatment, 50 mg/kg oral on days D0, D1 and D2, 50 mg/kg",517 cysts per g faeces and 0 cysts per g faeces (3×) and 975 cysts per g faeces and 903 cysts per g faeces
same,Giardia cyst excretion D−1,"Giardia duodenalis [2]; individual dogs, day −1, before treatment, 50 mg/kg oral on days D0, D1 and D2, 50 mg/kg",25515 cysts per g faeces and 3472 cysts per g faeces and 37203 cysts per g faeces and 8528 cysts per g faeces and 91293 cysts per g faeces and 59273 cysts per g faeces
same,Giardia cyst excretion D−2,"Giardia duodenalis [2]; individual dogs, day −2, before treatment, 50 mg/kg oral on days D0, D1 and D2, 50 mg/kg",10685 cysts per g faeces and 8278 cysts per g faeces and 1618 cysts per g faeces and 133 cysts per g faeces and 79689 cysts per g faeces and 68914 cysts per g faeces
